Laboratory results reported in ChEMBL document CHEMBL1201862, “PubChem BioAssay data set” (2004).
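Assay format: 96-well plates, 48-hour exposure. Abbreviation: GI50, concentration required for 50% inhibition of growth.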 Active and inactive are the calls of the source. Cut-off read from the data, not from the text of the source: active = GI50 up to about 1.1 µM and inactive = higher.

Columns and labels:
Assay in all cases: DTP human tumour cell line panel, 48 h
CAKI-1 = system: CAKI-1
SK-MEL-2 = system: SK-MEL-2
NCI-H23 = system: NCI-H23
SF-539 = system: SF-539
HOP-92 = system: HOP-92
SNB-19 = system: SNB-19
UACC-257 = system: UACC-257
NCI-H460 = system: NCI-H460
MDA-MB-435 = system: MDA-MB-435
M14 = system: M14
SW-620 = system: SW-620
UO-31 = system: UO-31
U-251 = system: U-251
COLO 205 = system: COLO 205
CCRF-CEM = system: CCRF-CEM
OVCAR-4 = system: OVCAR-4
HCT-116 = system: HCT-116
SF-268 = system: SF-268
SN12C = system: SN12C
NCI-H522 = system: NCI-H522

Compound | GI50 (CAKI-1) | GI50 (SK-MEL-2) | GI50 (NCI-H23) | GI50 (SF-539) | GI50 (HOP-92) | GI50 (SNB-19) | GI50 (UACC-257) | GI50 (NCI-H460) | GI50 (MDA-MB-435) | GI50 (M14) | GI50 (SW-620) | GI50 (UO-31) | GI50 (U-251) | GI50 (COLO 205) | GI50 (CCRF-CEM) | GI50 (OVCAR-4) | GI50 (HCT-116) | GI50 (SF-268) | GI50 (SN12C) | GI50 (NCI-H522)
Nc1nc(O)c(N)c(NCCOCP(=O)(O)O)n1 | > 100 µM (inactive) | > 100 µM (inactive) | > 57.8 µM (inactive) | > 100 µM (inactive) | > 100 µM (inactive) | > 100 µM (inactive) | > 100 µM (inactive) | > 100 µM (inactive) | > 100 µM (inactive) | > 100 µM (inactive) | > 100 µM (inactive) | > 100 µM (inactive) | > 100 µM (inactive) | > 100 µM (inactive) | > 100 µM (inactive) | > 100 µM (inactive) | > 100 µM (inactive) | > 100 µM (inactive) | > 100 µM (inactive) | 
CC1(C)COC(c2ccc(C(=O)c3ccc(Cl)cc3)cc2)=N1 | > 100 µM (inactive) | > 100 µM (inactive) | 6.95 µM (inactive) | > 100 µM (inactive) | 85.1 µM (inactive) | > 100 µM (inactive) | 10.7 µM (inactive) | > 100 µM (inactive) | 44.5 µM (inactive) | > 100 µM (inactive) | > 100 µM (inactive) | 58.7 µM (inactive) | > 100 µM (inactive) | > 100 µM (inactive) | > 100 µM (inactive) |  | > 100 µM (inactive) | > 100 µM (inactive) | > 100 µM (inactive) | > 100 µM (inactive)
N#CC(c1ccccc1)(c1ccccc1)[C@@H](c1ccccc1)[C@H](Cc1ccccc1)NS(=O)(=O)c1ccccc1 | > 100 µM (inactive) | > 100 µM (inactive) | > 100 µM (inactive) | > 100 µM (inactive) |  | > 100 µM (inactive) | > 100 µM (inactive) | 66.7 µM (inactive) | > 100 µM (inactive) | > 100 µM (inactive) | > 100 µM (inactive) | > 100 µM (inactive) | > 100 µM (inactive) | > 100 µM (inactive) | > 100 µM (inactive) | > 100 µM (inactive) | > 100 µM (inactive) | > 100 µM (inactive) | > 100 µM (inactive) | > 100 µM (inactive)
N#C/C(=C\c1ccc(CP(=O)(O)O)cc1)C(N)=O | > 100 µM (inactive) | > 100 µM (inactive) | > 100 µM (inactive) | > 100 µM (inactive) | > 100 µM (inactive) | > 100 µM (inactive) | > 100 µM (inactive) | > 100 µM (inactive) |  | > 100 µM (inactive) | > 100 µM (inactive) | > 100 µM (inactive) | > 100 µM (inactive) | > 100 µM (inactive) | > 100 µM (inactive) | > 100 µM (inactive) | > 100 µM (inactive) | > 100 µM (inactive) | > 100 µM (inactive) | > 100 µM (inactive)
c1ccc2c3nnc(c2c1)SCCCSc1nnc(c2ccccc12)SCCCS3 |  | 40.1 µM (inactive) | 71.1 µM (inactive) | 11 µM (inactive) | 32.9 µM (inactive) | 28.8 µM (inactive) | > 100 µM (inactive) | 34.4 µM (inactive) | > 100 µM (inactive) | 90.8 µM (inactive) | > 100 µM (inactive) | > 100 µM (inactive) | 76 µM (inactive) | > 100 µM (inactive) | > 100 µM (inactive) | 23.4 µM (inactive) | > 100 µM (inactive) | 18.9 µM (inactive) | > 100 µM (inactive) | 42.5 µM (inactive)
C=CCC1(OCc2ccccc2)C(=O)C(=O)OC1C1COC(C)(C)O1 (stereo unspecified) | > 100 µM (inactive) | > 100 µM (inactive) | > 100 µM (inactive) | > 100 µM (inactive) |  | > 100 µM (inactive) | > 100 µM (inactive) | > 100 µM (inactive) | > 100 µM (inactive) | > 100 µM (inactive) | > 100 µM (inactive) | > 100 µM (inactive) | > 100 µM (inactive) | > 100 µM (inactive) | > 100 µM (inactive) | > 100 µM (inactive) | > 100 µM (inactive) | > 100 µM (inactive) | > 100 µM (inactive) | > 100 µM (inactive)
Cc1cc(C)nc(NS(=O)(=O)c2ccc(NC(=O)c3cccc4c(=O)c5ccccc5[nH]c34)cc2)n1 | 33 µM (inactive) | > 10 µM (inactive) | 17 µM (inactive) | 18.4 µM (inactive) | 20 µM (inactive) | 27.2 µM (inactive) | 17.9 µM (inactive) | 17 µM (inactive) |  | 18.9 µM (inactive) | 23.5 µM (inactive) | 22.2 µM (inactive) | 16.5 µM (inactive) | 18.3 µM (inactive) | 13 µM (inactive) | 18.5 µM (inactive) | 17 µM (inactive) | 21.8 µM (inactive) | 15.9 µM (inactive) | 13.1 µM (inactive)
N[C@@H](Cc1ccccc1)C(=O)N1CCC[C@@H]1P(=O)(Oc1ccccc1)Oc1ccccc1 | > 100 µM (inactive) | > 100 µM (inactive) | > 100 µM (inactive) | > 100 µM (inactive) | > 100 µM (inactive) | > 100 µM (inactive) | > 100 µM (inactive) | > 100 µM (inactive) | > 100 µM (inactive) | > 100 µM (inactive) | > 100 µM (inactive) | > 100 µM (inactive) | > 100 µM (inactive) | > 100 µM (inactive) | > 100 µM (inactive) | > 100 µM (inactive) | > 100 µM (inactive) | > 100 µM (inactive) | > 100 µM (inactive) | 
COc1ccc(OC)c2c1ccc1c(C)c3ccccc3c(C)c12 | > 100 µM (inactive) | > 100 µM (inactive) | 89.5 µM (inactive) |  |  | > 100 µM (inactive) | > 100 µM (inactive) | 71.9 µM (inactive) | > 100 µM (inactive) | 82 µM (inactive) |  | 82.2 µM (inactive) | > 100 µM (inactive) |  | > 100 µM (inactive) | 79.4 µM (inactive) | 67.9 µM (inactive) | > 100 µM (inactive) | 22.9 µM (inactive) | 75.9 µM (inactive)
CC(C)(C)OC(=O)NC1CCCC1C(=O)C1=CCCC1 (stereo unspecified) |  | > 100 µM (inactive) | 85.7 µM (inactive) |  | > 100 µM (inactive) | > 100 µM (inactive) | > 100 µM (inactive) | > 100 µM (inactive) | 90.6 µM (inactive) | > 100 µM (inactive) | > 100 µM (inactive) |  | > 100 µM (inactive) | > 100 µM (inactive) | 74.6 µM (inactive) | 49.1 µM (inactive) | 97.3 µM (inactive) | > 100 µM (inactive) | 53.3 µM (inactive) | 
CN(C)/N=N/c1nc2c(c(=O)n(C)c(=O)n2C)n1CC(O)CO (stereo unspecified) | > 100 µM (inactive) | > 100 µM (inactive) | > 100 µM (inactive) |  |  | > 100 µM (inactive) | > 100 µM (inactive) | > 100 µM (inactive) | > 100 µM (inactive) | > 100 µM (inactive) | > 100 µM (inactive) | > 100 µM (inactive) | > 100 µM (inactive) | > 100 µM (inactive) | > 100 µM (inactive) | > 100 µM (inactive) | > 100 µM (inactive) | > 100 µM (inactive) | > 100 µM (inactive) | > 100 µM (inactive)
COc1ccc(-n2nnc3c(C#N)c(C)c(-c4ccccc4)n3c2=O)cc1 |  | 3.56 µM (inactive) | 3.34 µM (inactive) | 2.04 µM (inactive) | > 92.7 µM (inactive) | 3.35 µM (inactive) | > 47.4 µM (inactive) | 3.65 µM (inactive) | 0.543 µM (active) | 1.4 µM (inactive) |  | 4.33 µM (inactive) | 11.3 µM (inactive) | 2.93 µM (inactive) | 0.38 µM (active) | > 75.2 µM (inactive) | 0.501 µM (active) | 5.19 µM (inactive) | 4.34 µM (inactive) | 
COc1ccc(-c2cc(-c3ccc(O)cc3O)c(C#N)c(=O)[nH]2)cc1 | 23.8 µM (inactive) |  | 26.2 µM (inactive) | 17.6 µM (inactive) | 12.6 µM (inactive) | 21.9 µM (inactive) | 19.5 µM (inactive) | 23.1 µM (inactive) | 13.8 µM (inactive) | 16 µM (inactive) | 21.3 µM (inactive) | 34.4 µM (inactive) | 18.7 µM (inactive) | 16.6 µM (inactive) | 23.9 µM (inactive) | 20.1 µM (inactive) | 19.1 µM (inactive) | 24.3 µM (inactive) | 18.8 µM (inactive) | 
O=[N+]([O-])c1ccc(C(c2c[nH]c3ccccc23)c2c[nH]c3ccccc23)cc1 |  | 7.31 µM (inactive) | 7.1 µM (inactive) | 16.4 µM (inactive) |  | 15.7 µM (inactive) | 3.03 µM (inactive) | 3.57 µM (inactive) | 13.3 µM (inactive) | 11.7 µM (inactive) | 12.4 µM (inactive) | 10.9 µM (inactive) | 11.8 µM (inactive) | 8.13 µM (inactive) | 0.309 µM (active) | 12 µM (inactive) |  | 8.85 µM (inactive) | 14.4 µM (inactive) | 
CCOP(=O)(OCC)/C(C#N)=C/c1ccc(-c2cc(C(F)(F)F)cc(C(F)(F)F)c2)o1 |  | 20.3 µM (inactive) | 13 µM (inactive) | 14.9 µM (inactive) | 8.41 µM (inactive) | 16 µM (inactive) | 16.3 µM (inactive) | 6.38 µM (inactive) | 14 µM (inactive) | 10.2 µM (inactive) | 14.9 µM (inactive) | 16.8 µM (inactive) | 12 µM (inactive) | 12.4 µM (inactive) | 9.75 µM (inactive) |  | 13.2 µM (inactive) | 15.2 µM (inactive) | 15.1 µM (inactive) | 10.4 µM (inactive)
